Test results reported in PMC7065771, “Dietary supplementation of recombinant antimicrobial peptide Epinephelus lanceolatus piscidin improves growth performance and immune response in Gallus gallus domesticus” (PLoS ONE, 2020).

Tests used:
[1] = system: Streptococcus equinus; format: cell-based; settings: 24 h
Method: (§1) All assays were performed in triplicate.

[2] = system: Escherichia coli; format: cell-based; settings: 24 h
Method: as §1

[3] = system: Staphylococcus aureus subsp; format: cell-based; settings: 24 h
Method: as §1

[4] = system: Klebsiella oxytoca; format: cell-based; settings: 24 h
Method: as §1

[5] = system: Streptococcus agalactiae; format: cell-based; settings: 24 h
Method: as §1

[6] = system: MRSA; format: cell-based, Methicillin-resistant Staphylococcus aureus; settings: 24 h
Method: as §1

[7] = system: Vibrio parahaemolyticus; settings: synthetic peptide, microbroth dilution series, Gram -
[8] = system: Pseudomonas aeruginosa; format: cell-based; settings: 24 h
Method: as §1

[9] = system: Pseudomonas aeruginosa (ATCC 19660); experiment: Inhibition zone (disk diffusion) assay; format: cell-based; settings: Pseudomonas aeruginosa, ATCC19660; disk paper on culture plate 16 h at 37°C; rEP: shake-flask supernatant 120 h after induction, maximum carrying capacity; ampicillin 2 mg/ml, 10 μl; read-out: Inhibition zone diameter
Method: as §1
(§2) The antimicrobial activity of rEP from flask cultures was evaluated by determining its ability to prevent growth of Gram-positive and Gram-negative bacteria with a disk diffusion assay. […] The most susceptible pathogens were R. anatipestifer (CFC27) and R. anatipestifer (CFC437) (Table 3a). Next, we investigated the thermostability of flask-fermented rEP with regard to its toxicity toward S. aureus (BCRC 10780), E. coli (BCRC 10675) and P. aeruginosa (ATCC 19660). Empty vector with no insert in P. pastoris was used as a control. Thermostability was measured by disk diffusion assay after cultures were incubated for 5 min at 40, 60, 80, or 100°C (Table 3b).

[10] = system: Riemerella anatipestifer (CFC27); experiment: Inhibition zone (disk diffusion) assay; format: cell-based; settings: Riemerella anatipestifer; disk paper 16 h at 37°C; ampicillin 2 mg/ml, 10 μl; read-out: Inhibition zone diameter
Method: as §1, §2

[11] = system: Staphylococcus aureus (BCRC 10780); experiment: Inhibition zone (disk diffusion) assay; format: cell-based; settings: Staphylococcus aureus, BCRC10780; disk paper on culture plate 16 h at 37°C; rEP: shake-flask supernatant 120 h after induction, maximum carrying capacity; ampicillin 2 mg/ml, 10 μl; read-out: Inhibition zone diameter
Method: as §1, §2

[12] = system: Riemerella anatipestifer (RA3); experiment: Inhibition zone (disk diffusion) assay; format: cell-based; settings: Riemerella anatipestifer; disk paper 16 h at 37°C; ampicillin 2 mg/ml, 10 μl; read-out: Inhibition zone diameter
Method: as §1, §2

[13] = system: Riemerella anatipestifer (RA16); experiment: Inhibition zone (disk diffusion) assay; format: cell-based; settings: disk paper on culture plate 16 h at 37°C, rEP: shake-flask supernatant 120 h after induction, maximum carrying capacity, ampicillin 2 mg/ml, 10 μl, read-out: Inhibition zone diameter
Method: as §1, §2

[14] = system: Riemerella anatipestifer (CFC363); experiment: Inhibition zone (disk diffusion) assay; format: cell-based; settings: disk paper on culture plate 16 h at 37°C, rEP: shake-flask supernatant 120 h after induction, maximum carrying capacity, ampicillin 2 mg/ml, 10 μl, read-out: Inhibition zone diameter
Method: as §1, §2

[15] = system: Escherichia coli (BCRC 10675); experiment: Inhibition zone (disk diffusion) assay; format: cell-based; settings: Escherichia coli, BCRC10675; disk paper on culture plate 16 h at 37°C; rEP: shake-flask supernatant 120 h after induction, maximum carrying capacity; ampicillin 2 mg/ml, 10 μl; read-out: Inhibition zone diameter
Method: as §1, §2

[16] = system: Riemerella anatipestifer (CFC437); experiment: Inhibition zone (disk diffusion) assay; format: cell-based; settings: Riemerella anatipestifer; disk paper 16 h at 37°C; ampicillin 2 mg/ml, 10 μl; read-out: Inhibition zone diameter
Method: as §1, §2

[17] = system: Riemerella anatipestifer (RA9); experiment: Inhibition zone (disk diffusion) assay; format: cell-based; settings: disk paper on culture plate 16 h at 37°C, rEP: shake-flask supernatant 120 h after induction, maximum carrying capacity, ampicillin 2 mg/ml, 10 μl, read-out: Inhibition zone diameter
Method: as §1, §2

What does the source list for “Ac-CIMKHLRNLWNGAKAIYNGAKAGWTEFK-NH2 [G6496-t1]”?
MIC [1]: 30 µg/mL; MIC [2]: 60 µg/mL; MIC [3]: 60 µg/mL; MIC [4]: 60 µg/mL; MIC [5]: 60 µg/mL

What does the source list for “Ac-CFFRHIKSFWRGAKAIFRGARQGWRE-NH2 [G6497-t1]”?
MIC [6]: 60 µg/mL; MIC [1]: 15 µg/mL; MIC [2]: 30 µg/mL; MIC [3]: 60 µg/mL; MIC [4]: 30 µg/mL; MIC [5]: 60 µg/mL; MIC [7]: 60 µg/mL

Which MIC [6] does the source give for “Ac-GFIFHIIKGLFHAGRMIHGLVNRRRHRHGMEE-NH2 [G6498-t1]” here?
The MIC was 5.6 µg/mL.

And the MIC [1]?
The MIC was 11.2 µg/mL.

What about the MIC [2] of the same molecule?
Its MIC is 22.5 µg/mL.

And the MIC [8]?
The MIC was 45 µg/mL.

What about the MIC [3] of the same molecule?
The MIC was 90 µg/mL.

And the MIC [4]?
The MIC was 45 µg/mL.

What about the MIC [5] of the same molecule?
The MIC was 90 µg/mL.

And the MIC [7]?
Its MIC is 5.6 µg/mL.

With `CC1(C)S[C@@H]2[C@H](NC(=O)[C@H](N)c3ccccc3)C(=O)N2[C@H]1C(=O)O` [Ampicillin, reference compound] as the molecule, how does the zone of inhibition at 2000 µg/mL [9] read?
The zone of inhibition at 2000 µg/mL was 11.6 ± 0.5 mm.

What about the zone of inhibition at 2000 µg/mL [10] of the same molecule?
The zone of inhibition at 2000 µg/mL was 43 ± 1.1 mm.

What about the zone of inhibition at 2000 µg/mL [11] of the same molecule?
The zone of inhibition at 2000 µg/mL was 14.6 ± 0.5 mm.

What about the zone of inhibition at 2000 µg/mL [12] of the same molecule?
The zone of inhibition at 2000 µg/mL was 12 ± 2.5 mm.

And the zone of inhibition at 2000 µg/mL [13]?
Its zone of inhibition at 2000 µg/mL is 30 ± 1.2 mm.

And the zone of inhibition at 2000 µg/mL [14]?
Its zone of inhibition at 2000 µg/mL is 32 ± 2.3 mm.

And the zone of inhibition at 2000 µg/mL [15]?
Its zone of inhibition at 2000 µg/mL is 13.6 ± 0.5 mm.

What about the zone of inhibition at 2000 µg/mL [16] of the same molecule?
The zone of inhibition at 2000 µg/mL was 15 ± 4.5 mm.

And the zone of inhibition at 2000 µg/mL [17]?
The zone of inhibition at 2000 µg/mL was 31 ± 0.8 mm.
